Laboratory results reported in the CheMixHub viscosity set.
± gives the uncertainty stated by the source.

Experiment: xn = mol fraction of the nth substance listed

OC(C(F)(F)F)C(F)(F)F + c1ccccc1
viscosity [mPa·s], 101 kPa
Conditions | x1 = 0.04927 | x1 = 0.1096 | x1 = 0.1764 | x1 = 0.2481 | x1 = 0.3333 | x1 = 0.4173 | x1 = 0.5478 | x1 = 0.6489 | x1 = 0.8774
298.15 K | 0.595 ± 0.008 | 0.589 ± 0.008 | 0.583 ± 0.008 | 0.585 ± 0.008 | 0.612 ± 0.008 | 0.648 ± 0.009 | 0.743 ± 0.01 | 0.834 ± 0.011 | 1.216 ± 0.017
313.15 K | 0.481 ± 0.007 | 0.475 ± 0.007 | 0.466 ± 0.006 | 0.471 ± 0.007 | 0.486 ± 0.007 | 0.508 ± 0.007 | 0.561 ± 0.008 | 0.617 ± 0.009 | 0.818 ± 0.012
323.15 K | 0.425 ± 0.006 | 0.423 ± 0.006 | 0.412 ± 0.006 | 0.414 ± 0.006 | 0.425 ± 0.006 | 0.441 ± 0.006 | 0.482 ± 0.007 | 0.521 ± 0.007 | 0.658 ± 0.009

COCCOCCOC + CCCOC(C)=O
viscosity [mPa·s], 101.3 kPa
Conditions | 298.15 K | 308.15 K | 318.15 K
x1 = 0.0296 | 0.567 ± 0.01 | 0.499 ± 0.009 | 0.447 ± 0.008
x1 = 0.076 | 0.586 ± 0.01 | 0.515 ± 0.009 | 0.46 ± 0.008
x1 = 0.0957 | 0.594 ± 0.01 | 0.521 ± 0.009 | 0.467 ± 0.008
x1 = 0.1388 | 0.611 ± 0.01 | 0.534 ± 0.009 | 0.478 ± 0.008
x1 = 0.1878 | 0.633 ± 0.01 | 0.551 ± 0.009 | 0.492 ± 0.008
x1 = 0.2478 | 0.656 ± 0.01 | 0.572 ± 0.009 | 0.508 ± 0.008
x1 = 0.3236 | 0.688 ± 0.011 | 0.597 ± 0.009 | 0.528 ± 0.009
x1 = 0.3893 | 0.716 ± 0.011 | 0.619 ± 0.01 | 0.544 ± 0.009
x1 = 0.4382 | 0.736 ± 0.011 | 0.635 ± 0.01 | 0.557 ± 0.009
x1 = 0.5153 | 0.769 ± 0.011 | 0.662 ± 0.01 | 0.579 ± 0.009
x1 = 0.5945 | 0.805 ± 0.012 | 0.691 ± 0.01 | 0.603 ± 0.009
x1 = 0.6605 | 0.835 ± 0.012 | 0.715 ± 0.01 | 0.626 ± 0.009
x1 = 0.735 | 0.87 ± 0.012 | 0.744 ± 0.011 | 0.648 ± 0.009
x1 = 0.7756 | 0.888 ± 0.012 | 0.759 ± 0.011 | 0.659 ± 0.01
x1 = 0.8324 | 0.916 ± 0.013 | 0.779 ± 0.011 | 0.676 ± 0.01
x1 = 0.8696 | 0.933 ± 0.013 | 0.793 ± 0.011 | 0.687 ± 0.01
x1 = 0.9082 | 0.954 ± 0.013 | 0.808 ± 0.011 | 0.699 ± 0.01
x1 = 0.9425 | 0.97 ± 0.013 | 0.822 ± 0.011 | 0.71 ± 0.01
x1 = 0.9777 | 0.988 ± 0.013 | 0.835 ± 0.011 | 0.722 ± 0.01
x2 = 0.0101 | – | – | 0.725 ± 0.01
x2 = 0.0103 | 0.991 ± 0.013 | 0.84 ± 0.011 | –

C1N2CN3CN1CN(C2)C3 + O
101 kPa
Conditions | viscosity [mPa·s]
293.15 K, x1 = 0.003601 | 1.028 ± 0.021
293.15 K, x1 = 0.007176 | 1.072 ± 0.021
293.15 K, x1 = 0.01043 | 1.127 ± 0.021
293.15 K, x1 = 0.01396 | 1.205 ± 0.021
293.15 K, x1 = 0.01775 | 1.308 ± 0.021
297.35 K, x1 = 0.022 | 1.515 ± 0.013
297.35 K, x1 = 0.031 | 1.736 ± 0.015
297.35 K, x1 = 0.041 | 2.087 ± 0.019
297.55 K, x1 = 0.052 | 2.537 ± 0.024
298.15 K, x1 = 0.003601 | 0.928 ± 0.021
298.15 K, x1 = 0.007176 | 0.979 ± 0.021
298.15 K, x1 = 0.01043 | 1.033 ± 0.021
298.15 K, x1 = 0.01396 | 1.101 ± 0.021
298.15 K, x1 = 0.01775 | 1.185 ± 0.021
300.15 K, x1 = 0.003601 | 0.83 ± 0.021
300.15 K, x1 = 0.007176 | 0.874 ± 0.021
300.15 K, x1 = 0.01043 | 0.922 ± 0.021
300.15 K, x1 = 0.01396 | 0.982 ± 0.021
300.15 K, x1 = 0.01775 | 1.058 ± 0.021
302.15 K, x1 = 0.022 | 1.389 ± 0.011
302.35 K, x1 = 0.031 | 1.627 ± 0.014
302.35 K, x1 = 0.052 | 2.222 ± 0.02
302.75 K, x1 = 0.041 | 1.832 ± 0.016
305.15 K, x1 = 0.003601 | 0.74 ± 0.02
305.15 K, x1 = 0.007176 | 0.777 ± 0.021
305.15 K, x1 = 0.01043 | 0.822 ± 0.021
305.15 K, x1 = 0.01396 | 0.884 ± 0.021
305.15 K, x1 = 0.01775 | 0.967 ± 0.021
306.95 K, x1 = 0.031 | 1.483 ± 0.013
307.35 K, x1 = 0.022 | 1.321 ± 0.011
307.35 K, x1 = 0.041 | 1.689 ± 0.014
307.35 K, x1 = 0.052 | 2.056 ± 0.017
311.95 K, x1 = 0.022 | 1.251 ± 0.01
312.15 K, x1 = 0.031 | 1.375 ± 0.011
312.15 K, x1 = 0.041 | 1.595 ± 0.013
312.15 K, x1 = 0.052 | 1.864 ± 0.017

ClC(Cl)C(Cl)Cl + CCO
viscosity [mPa·s], 101.32 kPa
Conditions | x2 = 0.167 | x2 = 0.3109 | x2 = 0.4362 | x2 = 0.5461 | x2 = 0.6435 | x2 = 0.7303 | x2 = 0.8081 | x2 = 0.8783 | x2 = 0.942
303.15 K | 1.369 ± 0.14 | 1.324 ± 0.13 | 1.257 ± 0.13 | 1.21 ± 0.12 | 1.166 ± 0.12 | 1.12 ± 0.11 | 1.095 ± 0.11 | 1.047 ± 0.11 | 1.026 ± 0.1
313.15 K | 1.24 ± 0.12 | 1.16 ± 0.12 | 1.107 ± 0.11 | 1.049 ± 0.11 | 1.007 ± 0.1 | 0.965 ± 0.097 | 0.934 ± 0.094 | 0.903 ± 0.091 | 0.868 ± 0.087
323.15 K | 1.121 ± 0.11 | 1.068 ± 0.11 | 0.961 ± 0.096 | 0.91 ± 0.091 | 0.869 ± 0.087 | 0.819 ± 0.082 | 0.795 ± 0.08 | 0.787 ± 0.079 | 0.732 ± 0.073

CCCC(=O)[O-].[Na+] + O
298.15 K, 101.33 kPa
Conditions | viscosity [mPa·s]
x1 = 0.008927 | 1.136 ± 0.012
x1 = 0.0177 | 1.436 ± 0.015
x1 = 0.02631 | 1.793 ± 0.018
x1 = 0.03478 | 2.235 ± 0.022

ClC(Cl)C(Cl)Cl + C=C(C)C(=O)OC
303.15 K, 101 kPa
Conditions | viscosity [mPa·s]
x2 = 0.0942 | 1.422 ± 0.011
x2 = 0.1967 | 1.317 ± 0.011
x2 = 0.2785 | 1.235 ± 0.01
x2 = 0.4978 | 0.9971 ± 0.0085
x2 = 0.598 | 0.8879 ± 0.0079
x2 = 0.7131 | 0.7662 ± 0.0071
x2 = 0.905 | 0.5902 ± 0.0062

COC(=O)OC + CCC(C)O
101.3 kPa
Conditions | viscosity [mPa·s]
293.15 K, x1 = 0.0505 | 2.908 ± 0.13
293.15 K, x1 = 0.0986 | 2.37 ± 0.11
293.15 K, x1 = 0.2131 | 1.522 ± 0.072
293.15 K, x1 = 0.2801 | 1.235 ± 0.06
293.15 K, x1 = 0.4092 | 0.94 ± 0.047
293.15 K, x1 = 0.511 | 0.83 ± 0.042
293.15 K, x1 = 0.6172 | 0.753 ± 0.039
293.15 K, x1 = 0.7072 | 0.696 ± 0.036
293.15 K, x1 = 0.7997 | 0.637 ± 0.034
293.15 K, x1 = 0.8229 | 0.621 ± 0.033
293.15 K, x1 = 0.9518 | 0.595 ± 0.032
298.15 K, x1 = 0.0572 | 2.399 ± 0.11
298.15 K, x1 = 0.0994 | 1.991 ± 0.092
298.15 K, x1 = 0.1958 | 1.354 ± 0.065
298.15 K, x1 = 0.3029 | 0.991 ± 0.049
298.15 K, x1 = 0.3339 | 0.926 ± 0.046
298.15 K, x1 = 0.5075 | 0.756 ± 0.039
298.15 K, x1 = 0.6051 | 0.707 ± 0.037
298.15 K, x1 = 0.7037 | 0.641 ± 0.034
298.15 K, x1 = 0.808 | 0.569 ± 0.031
298.15 K, x1 = 0.9046 | 0.531 ± 0.029
298.15 K, x1 = 0.9523 | 0.542 ± 0.03
303.15 K, x1 = 0.0573 | 1.931 ± 0.089
303.15 K, x1 = 0.0842 | 1.728 ± 0.081
303.15 K, x1 = 0.1936 | 1.195 ± 0.058
303.15 K, x1 = 0.2981 | 0.943 ± 0.047
303.15 K, x1 = 0.3926 | 0.809 ± 0.041
303.15 K, x1 = 0.4938 | 0.709 ± 0.037
303.15 K, x1 = 0.59 | 0.632 ± 0.034
303.15 K, x1 = 0.6561 | 0.594 ± 0.032
303.15 K, x1 = 0.7945 | 0.549 ± 0.03
303.15 K, x1 = 0.8916 | 0.547 ± 0.03
303.15 K, x1 = 0.9483 | 0.546 ± 0.03
313.15 K, x1 = 0.0498 | 1.512 ± 0.071
313.15 K, x1 = 0.1005 | 1.289 ± 0.062
313.15 K, x1 = 0.2009 | 0.975 ± 0.048
313.15 K, x1 = 0.2952 | 0.795 ± 0.041
313.15 K, x1 = 0.4047 | 0.669 ± 0.035
313.15 K, x1 = 0.5109 | 0.6 ± 0.032
313.15 K, x1 = 0.6072 | 0.561 ± 0.031
313.15 K, x1 = 0.6982 | 0.529 ± 0.029
313.15 K, x1 = 0.7992 | 0.502 ± 0.028
313.15 K, x1 = 0.8977 | 0.486 ± 0.027
313.15 K, x1 = 0.9583 | 0.486 ± 0.027

C[N+](C)(C)CCO.O=C([O-])C(F)(F)F + O
Conditions | viscosity [mPa·s]
298 K, 101.33 kPa, x2 = 0.8 | 7.7
